The source made the active and inactive calls.
Legend:
Galanin receptor type 3 = Galanin receptor type 3 (Homo sapiens, UniProt O60755); assay: Fluorescence-based cell-based primary high throughput dose response assay to identify antagonists of the Galanin Receptor 3 (GalR3).; assay type: functional
cells [1] = assay type: functional, cell-based; conditions: HEK-CNG
cells [2] = assay type: functional, cell-based
[3] = target: T1, Nuclear receptor subfamily 0 group B member 1 (Homo sapiens, UniProt P51843); assay type: functional, cell-based;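 further: HEK293T cells transfected with SF-1 and DAX-1 plus StAR promoter luciferase reporter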
T1 sequence (P51843 whole entry): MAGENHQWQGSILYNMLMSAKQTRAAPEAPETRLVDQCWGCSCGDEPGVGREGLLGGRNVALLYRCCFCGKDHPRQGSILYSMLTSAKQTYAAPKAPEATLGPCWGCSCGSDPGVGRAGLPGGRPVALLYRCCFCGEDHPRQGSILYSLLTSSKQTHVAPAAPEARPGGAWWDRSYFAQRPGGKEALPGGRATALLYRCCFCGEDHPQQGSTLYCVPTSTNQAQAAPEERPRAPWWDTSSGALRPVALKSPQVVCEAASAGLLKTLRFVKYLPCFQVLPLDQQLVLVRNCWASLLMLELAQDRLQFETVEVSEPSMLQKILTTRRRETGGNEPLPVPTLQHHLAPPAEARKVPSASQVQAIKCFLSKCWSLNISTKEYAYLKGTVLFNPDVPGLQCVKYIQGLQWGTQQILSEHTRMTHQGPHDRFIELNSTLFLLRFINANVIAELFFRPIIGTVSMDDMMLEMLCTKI

cells [4] = conditions: HEK293
cells [5] = conditions: A549
[6] = inhibitors of HIV Env-driven cell fusion, dose response, cherry-pick (AID 652057); assay type: functional, cell-based
cells [7] = assay: cells
[8] = target: T2, Endoribonuclease toxin MazF (Escherichia coli K-12, UniProt P0AE70); assay: MazF toxin RNase activators, dose response, biochemical, fluorescence, single-stranded RNA substrate, uHTS hits (AID 588481); assay type: functional
T2 sequence (P0AE70 whole entry): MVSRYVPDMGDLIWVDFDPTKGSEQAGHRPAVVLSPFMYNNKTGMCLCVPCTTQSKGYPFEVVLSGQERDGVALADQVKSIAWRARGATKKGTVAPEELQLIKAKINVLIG

[9] = target: T2, Endoribonuclease toxin MazF; assay: fluorescent RNA oligo signal without MazF, dose response, counter-screen for MazEF activator project, biochemical, fluorescence, single-stranded RNase substrate (AID 588502); assay type: functional
[10] = target: T3, Polyadenylate-binding protein 1 (Homo sapiens, UniProt P11940); assay: PABP1 MLLE–PAM2 interaction inhibitors, dose response, miRNA deadenylation inhibitor project, biochemical, fluorescence polarization, Cy5-PAM2 peptide, secondary (AID 602260); assay type: functional; conditions: read-out: IC50_Mean
T3 sequence (P11940 whole entry): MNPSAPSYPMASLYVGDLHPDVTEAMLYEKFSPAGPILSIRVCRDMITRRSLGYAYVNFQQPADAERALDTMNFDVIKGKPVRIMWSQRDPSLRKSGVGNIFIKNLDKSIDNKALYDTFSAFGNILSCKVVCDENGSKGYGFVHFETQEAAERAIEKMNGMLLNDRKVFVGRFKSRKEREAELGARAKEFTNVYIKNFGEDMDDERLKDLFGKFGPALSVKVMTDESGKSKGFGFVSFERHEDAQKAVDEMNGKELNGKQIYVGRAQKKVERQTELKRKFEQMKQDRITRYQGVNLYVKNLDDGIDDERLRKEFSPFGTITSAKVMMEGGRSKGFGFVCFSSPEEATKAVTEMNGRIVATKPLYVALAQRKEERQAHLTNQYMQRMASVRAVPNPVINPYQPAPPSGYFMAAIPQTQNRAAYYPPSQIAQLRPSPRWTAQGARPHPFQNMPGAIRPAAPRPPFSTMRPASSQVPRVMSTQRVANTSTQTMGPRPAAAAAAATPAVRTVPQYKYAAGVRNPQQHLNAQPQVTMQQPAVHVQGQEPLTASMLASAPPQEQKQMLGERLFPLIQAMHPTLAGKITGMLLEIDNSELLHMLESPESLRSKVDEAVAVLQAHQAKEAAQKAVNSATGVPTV

[11] = Counterscreen for activators of the function of SWI/SNF related, matrix associated, actin dependent regulator of chromatin, subfamily a, member 2 (SMARCA2, BRM): Luminescence-based cell-based high throughput dose response assay to identify non-selective compounds using the VP16 reporter assay.; assay type: functional
[12] = target: T3, Polyadenylate-binding protein 1; assay: PABP1 MLLE–PAM2 binding inhibitor potency, dose response, biochemical, fluorescence polarization, FITC-PAM2 peptide (AID 602259); assay type: functional; conditions: read-out: IC50_Mean
[13] = target: SWI/SNF-related matrix-associated actin-dependent regulator of chromatin subfamily A member 2 (Homo sapiens, UniProt P51531); assay: Luminescence-based cell-based high throughput dose response assay to identify activators of the function of SWI/SNF related, matrix associated, actin dependent regulator of chromatin, subfamily a, member 2 (SMARCA2, BRM).; assay type: functional
Sequence of SWI/SNF-related matrix-associated actin-dependent regulator of chromatin subfamily A member 2 (P51531 whole entry): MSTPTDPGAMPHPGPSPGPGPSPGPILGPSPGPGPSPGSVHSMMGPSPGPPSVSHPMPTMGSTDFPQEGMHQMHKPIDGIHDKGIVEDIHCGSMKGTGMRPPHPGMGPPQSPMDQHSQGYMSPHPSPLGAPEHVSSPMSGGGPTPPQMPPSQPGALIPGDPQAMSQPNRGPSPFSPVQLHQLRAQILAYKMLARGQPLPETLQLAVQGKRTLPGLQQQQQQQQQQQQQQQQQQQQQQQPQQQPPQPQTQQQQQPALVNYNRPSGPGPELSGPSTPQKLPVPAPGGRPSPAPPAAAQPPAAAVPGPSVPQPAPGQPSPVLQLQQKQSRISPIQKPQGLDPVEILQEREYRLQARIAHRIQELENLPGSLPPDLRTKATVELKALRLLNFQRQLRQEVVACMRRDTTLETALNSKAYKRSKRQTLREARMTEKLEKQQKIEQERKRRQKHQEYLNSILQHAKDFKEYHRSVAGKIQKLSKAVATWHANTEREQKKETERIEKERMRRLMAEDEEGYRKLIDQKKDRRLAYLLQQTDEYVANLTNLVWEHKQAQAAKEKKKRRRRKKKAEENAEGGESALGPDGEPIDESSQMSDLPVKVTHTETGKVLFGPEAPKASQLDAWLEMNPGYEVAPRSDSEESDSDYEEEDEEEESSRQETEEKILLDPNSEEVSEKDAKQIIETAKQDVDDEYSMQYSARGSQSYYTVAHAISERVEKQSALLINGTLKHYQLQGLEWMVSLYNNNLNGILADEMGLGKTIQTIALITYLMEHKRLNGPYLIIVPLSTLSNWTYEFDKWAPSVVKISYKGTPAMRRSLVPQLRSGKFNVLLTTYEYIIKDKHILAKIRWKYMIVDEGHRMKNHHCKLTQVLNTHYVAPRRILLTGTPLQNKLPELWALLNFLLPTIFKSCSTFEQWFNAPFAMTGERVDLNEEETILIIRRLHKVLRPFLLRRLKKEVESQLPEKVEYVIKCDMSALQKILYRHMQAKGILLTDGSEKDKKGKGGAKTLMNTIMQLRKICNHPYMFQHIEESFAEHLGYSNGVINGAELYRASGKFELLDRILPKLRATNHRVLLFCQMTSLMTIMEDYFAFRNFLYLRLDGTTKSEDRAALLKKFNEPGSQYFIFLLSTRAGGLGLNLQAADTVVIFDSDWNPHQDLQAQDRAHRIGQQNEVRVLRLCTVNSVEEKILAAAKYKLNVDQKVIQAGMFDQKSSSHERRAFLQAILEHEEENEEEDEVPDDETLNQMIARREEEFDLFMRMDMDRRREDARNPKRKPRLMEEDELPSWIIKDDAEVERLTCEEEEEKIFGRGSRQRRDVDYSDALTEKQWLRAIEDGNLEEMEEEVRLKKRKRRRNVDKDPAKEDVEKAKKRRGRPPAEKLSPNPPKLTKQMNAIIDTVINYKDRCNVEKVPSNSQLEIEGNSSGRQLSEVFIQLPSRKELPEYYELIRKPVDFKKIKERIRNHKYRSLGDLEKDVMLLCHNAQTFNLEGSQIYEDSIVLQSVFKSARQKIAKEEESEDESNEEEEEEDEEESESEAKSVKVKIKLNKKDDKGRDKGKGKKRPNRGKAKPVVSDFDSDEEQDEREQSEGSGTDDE

HepG2 = assay: HepG2 cell cytotoxicity, dose response, cytotoxicity control, cherry-picks, set 2 (AID 687002); assay type: functional, cell-based; conditions: Homo sapiens
Vero = assay: Vero cell toxicity, dose response, cytotoxicity control, plate reader, cherry-pick samples (AID 687020); assay type: functional, cell-based; conditions: Chlorocebus sabaeus
A549 = assay: A549 cell toxicity, dose response, cytotoxicity control, plate reader, cherry-pick samples (AID 687028); assay type: functional, cell-based; conditions: Homo sapiens
[14] = microbe, parasite or virus in culture; assay type: functional; conditions: Mycobacterium tuberculosis
[15] = target: COUP transcription factor 2 (Homo sapiens, UniProt P24468); assay: Luminescence-based cell-based high throughput dose response assay to identify inhibitors of COUP-TFII (NR2F2).; assay type: functional;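 further: HEK293 cells transiently cotransfected with COUP-TFII expression vector and reporter; luciferase reporter luminescence driven by COUP-TFII from the pX2-168 reporter plasmid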
Sequence of COUP transcription factor 2 (P24468 whole entry): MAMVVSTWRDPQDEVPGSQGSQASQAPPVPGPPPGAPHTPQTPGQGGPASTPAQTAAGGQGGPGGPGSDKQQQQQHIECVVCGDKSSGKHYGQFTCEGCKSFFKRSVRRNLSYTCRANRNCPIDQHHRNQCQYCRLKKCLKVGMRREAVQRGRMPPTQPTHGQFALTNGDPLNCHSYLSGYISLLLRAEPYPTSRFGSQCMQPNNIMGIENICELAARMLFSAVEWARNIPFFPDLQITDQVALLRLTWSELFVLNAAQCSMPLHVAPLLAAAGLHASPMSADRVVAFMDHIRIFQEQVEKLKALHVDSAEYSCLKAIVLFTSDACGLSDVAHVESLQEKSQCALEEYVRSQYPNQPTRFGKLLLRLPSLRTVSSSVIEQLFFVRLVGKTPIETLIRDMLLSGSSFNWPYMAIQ

[16] = cytotoxicity in HepG2 cells, dose response, cytotoxicity control, cell-based, cherry-picked samples (AID 1053183); assay type: functional
[17] = MC4R antagonists, dose response, counter-screen for LGR2 antagonist project, cell-based, plate reader, cherry pick (AID 743444); assay type: functional;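 further: transfected HEK 293 cells stimulated with alpha-MSH peptide; potency of inhibitors of the alpha-MSH evoked signal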
[18] = cytotoxicity in OVCAR8 ovarian cancer cells, dose response, PAX8 project, cell-based, plate reader, dry powder samples (AID 743197); assay type: functional; conditions: OVCAR-8
[19] = HepG2 cell cytotoxicity, dose response, cytotoxicity control, plate reader, cherry-pick, antagonist series (AID 743416); assay type: functional, cell-based
[20] = cytotoxicity in HEK293 cells, dose response, cytotoxicity control, cell-based, cherry-picked samples (AID 1053185); assay type: functional
[21] = IOSE-T80 ovarian epithelial cell cytotoxicity, dose response, cytotoxicity control for PAX8 inhibitor project, plate reader, dry powder samples (AID 743045); assay type: functional, cell-based
[22] = cytotoxicity in A549 cells, dose response, cytotoxicity control, cell-based, cherry-picked samples (AID 1053184); assay type: functional
[23] = LGR2 antagonists, dose response, cell-based, HEK293, CRE-luciferase reporter, cherry pick, set 2 (AID 743343); assay type: functional;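 further: transfected cells were stimulated with diluted bursicon conditioned medium after compound addition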
[24] = IGROV1 ovarian cancer cell cytotoxicity, dose response, PAX8 inhibitor project, plate reader, dry powder samples (AID 743043); assay type: functional, cell-based; conditions: IGROV-1
[25] = NIH:OVCAR-3 ovarian cancer cell cytotoxicity, dose response, PAX8 inhibitor project, plate reader, dry powder samples (AID 743044); assay type: functional, cell-based
[26] = HEK293 cell cytotoxicity, dose response, cytotoxicity control, plate reader, cherry-picked samples (AID 743446); assay type: functional, cell-based
Paired box protein Pax-8 = Paired box protein Pax-8 (Homo sapiens, UniProt Q06710); assay: inhibitors of PAX8-driven TPO luciferase reporter, dose response, RMG-I cells, cherry-pick (AID 687027); assay type: functional, cell-based;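 further: luciferase reporter driven by Pax8 target thyroperoxidase promoter measured by SteadyGlo luminescence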
Sequence of Paired box protein Pax-8 (Q06710 whole entry): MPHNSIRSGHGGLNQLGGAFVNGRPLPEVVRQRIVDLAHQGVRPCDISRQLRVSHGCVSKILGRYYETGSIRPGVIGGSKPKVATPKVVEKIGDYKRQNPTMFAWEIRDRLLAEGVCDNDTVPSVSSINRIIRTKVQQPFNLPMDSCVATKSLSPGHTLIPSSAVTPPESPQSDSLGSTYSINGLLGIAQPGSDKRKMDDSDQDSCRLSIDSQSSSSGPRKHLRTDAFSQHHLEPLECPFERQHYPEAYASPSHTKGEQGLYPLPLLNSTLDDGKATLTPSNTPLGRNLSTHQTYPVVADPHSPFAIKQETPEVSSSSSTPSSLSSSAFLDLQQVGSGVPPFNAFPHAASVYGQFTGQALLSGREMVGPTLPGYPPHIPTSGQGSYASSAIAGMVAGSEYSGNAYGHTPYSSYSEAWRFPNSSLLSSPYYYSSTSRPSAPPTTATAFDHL

[27] = A549 cell cytotoxicity, dose response, cytotoxicity control, plate reader, cherry-pick, antagonist series (AID 743412); assay type: functional, cell-based
[28] = target: T4, Scavenger receptor class B member 1 (Mus musculus, UniProt Q61009); assay: inhibitors of SR-BI-mediated HDL uptake, dose response, cell-based, ldlA[mSR-BI] CHO, DiI fluorescence, dry powder, set 10 (AID 624029); assay type: functional
T4 sequence (Q61009 whole entry): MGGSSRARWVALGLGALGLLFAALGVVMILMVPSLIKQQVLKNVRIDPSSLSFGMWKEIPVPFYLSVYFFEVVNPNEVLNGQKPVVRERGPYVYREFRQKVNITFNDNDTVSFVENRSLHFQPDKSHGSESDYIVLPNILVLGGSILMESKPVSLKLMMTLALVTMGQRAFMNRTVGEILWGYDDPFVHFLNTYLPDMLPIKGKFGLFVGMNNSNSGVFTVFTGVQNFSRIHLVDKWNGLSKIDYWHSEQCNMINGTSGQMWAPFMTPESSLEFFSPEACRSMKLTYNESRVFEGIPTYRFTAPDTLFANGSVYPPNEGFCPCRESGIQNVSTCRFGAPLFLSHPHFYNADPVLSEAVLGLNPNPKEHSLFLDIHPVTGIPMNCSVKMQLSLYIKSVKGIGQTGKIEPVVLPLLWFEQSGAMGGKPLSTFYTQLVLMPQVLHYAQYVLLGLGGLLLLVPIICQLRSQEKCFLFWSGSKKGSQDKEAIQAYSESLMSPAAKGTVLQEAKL

[29] = cytotoxicity in ldlA[mSR-BI] CHO cells, dose response, cytotoxicity control for SR-BI HDL uptake inhibitor project, cell-based, CellTiter-Glo, 24 h, powder samples, set 7 (AID 624026); assay type: functional
[30] = A375 melanoma cell viability loss, dose response, counter-screen for MITF inhibitor project, CellTiter-Glo luminescence, dry powder, set 4 (AID 624364); assay type: functional, cell-based; conditions: A-375;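 further: A375 melanoma cells are MITF independent so this is a counter screen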
[31] = A375 melanoma cell cytotoxicity, dose response, counter-screen for MITF inhibitor project, CellTiter-Glo luminescence, dry powder, set 2 (AID 624489); assay type: functional, cell-based; conditions: A-375;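 further: actives are compounds lowering A375 viability meaning general cytotoxicity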
[32] = A549 cell cytotoxicity, dose response, cytotoxicity control, cherry-picks, 26 µM top dose (AID 1053119); assay type: functional, cell-based
[33] = HepG2 cell cytotoxicity, dose response, cytotoxicity control, cherry-picks, set 5 (AID 1053118); assay type: functional, cell-based
[34] = HEK293 cell cytotoxicity, dose response, cytotoxicity control, cherry-picks, set 5 (AID 1053117); assay type: functional, cell-based
[35] = CFTR ΔF508 corrector activity in bronchial cells, dose response, human bronchial epithelial cells, plate reader, cherry-pick, two tests (AID 743267); assay type: functional, cell-based
[36] = target: Metabotropic glutamate receptor 3 (Rattus norvegicus, UniProt P31422); assay: mGlu3 negative allosteric modulator potency, dose response, HEK/GIRK cells, thallium flux, rat (AID 651839); assay type: functional
Sequence of Metabotropic glutamate receptor 3 (P31422 whole entry): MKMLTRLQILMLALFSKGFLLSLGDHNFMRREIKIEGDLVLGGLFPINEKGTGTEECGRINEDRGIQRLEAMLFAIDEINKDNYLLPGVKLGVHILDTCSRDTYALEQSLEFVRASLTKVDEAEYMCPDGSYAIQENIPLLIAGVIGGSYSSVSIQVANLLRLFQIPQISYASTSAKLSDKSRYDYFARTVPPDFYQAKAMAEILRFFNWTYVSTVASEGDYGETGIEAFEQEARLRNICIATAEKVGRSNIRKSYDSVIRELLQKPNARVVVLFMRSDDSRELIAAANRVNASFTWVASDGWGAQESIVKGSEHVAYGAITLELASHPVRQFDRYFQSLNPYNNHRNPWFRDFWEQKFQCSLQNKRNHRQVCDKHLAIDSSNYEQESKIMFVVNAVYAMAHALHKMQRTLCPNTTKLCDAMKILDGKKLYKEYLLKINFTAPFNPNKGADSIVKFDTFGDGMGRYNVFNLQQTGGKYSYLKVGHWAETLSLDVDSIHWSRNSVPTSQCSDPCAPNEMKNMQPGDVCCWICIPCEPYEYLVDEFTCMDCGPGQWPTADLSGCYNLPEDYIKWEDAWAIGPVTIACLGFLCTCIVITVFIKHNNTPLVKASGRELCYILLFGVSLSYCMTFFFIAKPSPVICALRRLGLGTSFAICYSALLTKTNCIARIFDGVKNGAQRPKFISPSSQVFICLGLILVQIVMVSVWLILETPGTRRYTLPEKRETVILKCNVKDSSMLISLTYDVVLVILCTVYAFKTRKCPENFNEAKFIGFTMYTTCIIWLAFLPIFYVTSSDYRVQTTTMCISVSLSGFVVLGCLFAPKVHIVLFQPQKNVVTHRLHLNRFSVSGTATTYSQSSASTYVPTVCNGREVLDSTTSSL

[37] = Cytotoxicity screening for potential Inhibitors of Bacterial Capsule Biogenesis (4).; assay type: functional
[38] = Late stage assay provider results from the probe development effort to identify selective inhibitors of heat shock protein 90 (HSP90): Absorbance-based cell proliferation assay in SKBR3 cells.; assay type: functional; conditions: SK-BR-3
[39] = Late stage assay provider results from the probe development effort to identify selective inhibitors of heat shock protein 90 (HSP90): Absorbance-based cell proliferation assay in MCF7 cells.; assay type: functional
[40] = T. cruzi intracellular amastigote growth inhibition, dose response, imaging, CA-I/72 strain, bovine embryo skeletal muscle, dry powder (AID 651885); assay type: functional, cell-based
[41] = target: T4, Scavenger receptor class B member 1; assay: inhibitors of SR-BI dependent HDL uptake, dose response, ldlA[mSR-BI] CHO cells, fluorescence plate reader, dry powder, set 9 (AID 623880); assay type: functional, cell-based

Sequence of Galanin receptor type 3 (O60755 whole entry): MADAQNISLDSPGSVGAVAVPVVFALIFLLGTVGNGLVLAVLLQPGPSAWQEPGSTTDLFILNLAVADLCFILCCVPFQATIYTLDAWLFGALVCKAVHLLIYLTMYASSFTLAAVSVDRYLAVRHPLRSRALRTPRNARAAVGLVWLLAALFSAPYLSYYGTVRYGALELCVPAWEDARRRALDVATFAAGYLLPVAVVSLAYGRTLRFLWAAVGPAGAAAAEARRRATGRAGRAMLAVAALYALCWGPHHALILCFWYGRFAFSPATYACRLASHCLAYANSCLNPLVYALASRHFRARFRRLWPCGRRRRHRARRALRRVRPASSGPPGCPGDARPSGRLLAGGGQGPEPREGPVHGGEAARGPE

SMILES: COc1cccc2[nH]c3c(N4CCCC(C)C4)ncnc3c12 (configuration not stated)
- IC50 (Galanin receptor type 3): 0.4 µM (active)
- EC50 (cells [1]): > 29.9 µM (inactive)

SMILES: Cc1ccc(NC(=O)c2ccc3snnc3c2)cc1C
- IC50 (cells [2]): > 67.6 µM (inactive)
- IC50 [3]: > 67.6 µM (inactive)

SMILES: C=CCN1C(=S)CC(c2ccccc2)=Nc2ccccc21
- AC50 (cells [4]): > 52 µM (inactive)
- AC50 (cells [5]): > 52 µM (inactive)
- AC50 [6]: 47.9 µM (active)

SMILES: CCOC(=O)c1cc2c(=O)n3ccccc3nc2n(Cc2ccc(Cl)cc2)c1=N
- AC50 (cells [7]): 1.99 µM (active)
- EC50 [8]: > 99 µM (inactive)
- EC50 [9]: > 99 µM (inactive)

SMILES: Cn1sccc1=O
- IC50 [10]: > 66 µM (inactive)
- EC50 [11]: > 91.2 µM (inactive)
- IC50 [12]: > 66 µM (inactive)
- EC50 [13]: > 91.2 µM (inactive)

SMILES: O=C(CSc1ncnc2c1cnn2-c1ccccc1)Nc1ccc2c(c1)OCO2
- AC50 (HepG2): 14 µM (active)

SMILES: COc1ccccc1C(=O)N1[C@@H](C(C)C)COc2cc(Br)ccc2S1(=O)=O
- AC50 (Vero): 28 µM (active)
- AC50 (A549): 24.4 µM (active)

SMILES: C/C(=N\NC(N)=S)C1C2C3CC4C5CC(C42)C1C53 (configuration not stated)
- CC50 [14]: > 40 µM (active)
- IC50 [15]: 6.4 µM (active)

SMILES: Cc1ccccc1S(=O)(=O)N1C[C@@H]2N[C@H](C1)[C@H]2c1ccc(-c2cccc(C#N)c2)cc1
- AC50 [16]: 31.9 µM (active)
- AC50 [17]: 14.3 µM (active)
- AC50 [18]: 39.1 µM (active)
- AC50 [19]: 9.35 µM (active)
- AC50 [20]: 35.5 µM (active)
- AC50 [21]: 51.4 µM (active)
- AC50 [22]: 36.5 µM (active)
- AC50 [23]: 14.8 µM (active)
- AC50 [24]: 20.5 µM (active)
- AC50 [25]: 21.7 µM (active)
- AC50 [26]: 20.4 µM (active)
- AC50 (Paired box protein Pax-8): 3.75 µM (active)
- AC50 [27]: 7.87 µM (active)

SMILES: CC(C)NC(=O)Nc1ccc2c(c1)C(=O)N([C@@H](C)CO)C[C@H](C)[C@@H](CN(C)S(=O)(=O)c1ccc(Cl)cc1)O2
- AC50 [28]: > 70 µM (inactive)
- AC50 [29]: > 70 µM (inactive)

SMILES: Cc1ccc(C(=O)NC2=C(c3ccc(OC(F)(F)F)cc3)C(=O)c3ccccc3C2=O)o1
- AC50 [30]: 33.4 µM (active)
- AC50 [31]: 21.3 µM (active)

SMILES: O=C(Nc1ccc(Cl)cc1)N1C[C@H]2[C@@H](c3ccccc31)[C@H](CO)N2CC1CCCC1
- AC50 [32]: 47.5 µM (active)
- AC50 [33]: 35.8 µM (active)
- AC50 [34]: 40.4 µM (active)

SMILES: COc1cccc(-c2ccc([C@@H]3[C@@H]4CN(S(=O)(=O)c5cccc(OC)c5)C[C@H]3N4)cc2)c1
- AC50 [35]: 13.5 µM (active)

SMILES: COc1ccc(C#Cc2ccc(C(=O)N3CCC(CO)C3)cc2)c(F)c1 (configuration not stated)
- IC50 [36]: 6.85 µM (active)

SMILES: COc1cc(NC(=O)c2ccc3nc(N)sc3c2)ccn1
- CC50 [37]: 172 µM (active)

SMILES: COc1ccc(NC(=O)c2coc(=O)c(Br)c2)cc1
- IC50 [38]: 8.2 µM (active)
- IC50 [39]: 2.4 µM (active)

SMILES: C[C@@H]1CN([C@@H](C)CO)C(=O)c2cccc(NC(=O)c3ccncc3)c2O[C@H]1CN(C)C
- IC50 [40]: > 20 µM (inactive)

SMILES: COc1c(NC(=O)C(=O)c2ccc(OCCN3CCOCC3)c3ccccc23)cc(C(C)(C)C)cc1NS(C)(=O)=O [ITX-5061 FREE BASE]
- AC50 [28]: 0.146 µM (active)
- AC50 [41]: 0.0114 µM (active)
